Results as given in patent US20200009248A1, “TARGETING TGR5 TO TREAT DISEASE” (Mayo Foundation for Medical Education and Research, priority 2014, published 2020).
“Also recorded” adds a separate entry of the source.

Legend:
[1] = system: control and cystic cholangiocytes; experiment: cAMP production (Bridge-It cAMP assay) in cholangiocytes treated with TGR5 agonists; format: cell-based, rat, human; details: 25 μM, 30 minutes; for cAMP production: ciliated cystic cholangiocytes (PCK rat, human ADPKD)
Method: Production of cAMP was detected using a Bridge-It cAMP designer cAMP assay (Mediomics, St. Lou is, MO) according to manufacturer's protocol. […] Forskolin (10^−6M for 15 min) served as a control.

[2] = system: cystic bile ducts from PCK rats; experiment: Three-dimensional culture of cystic bile ducts, cyst growth; format: cell-based, rat; details: 25 μm daily, day 3 vs day 1, compared to untreated
Method: (§1) Cultured cholangiocytes and cystic bile ducts freshly isolated by microdissection from PCK rats were grown in three-dimensional matrices as described elsewhere (Masyuk et al., Am J Pathol 2014, 184:110-121; and Masyuk et al., Am J Pathol 2004, 165:1719-1730) and treated with TLCA and OA (both, […]) daily. Images were taken at days 1 (i.e., 24 hours after seeding) and 3. The circumferential area of each cyst was measured using ImageJ software (National Institutes of Health, Bethesda, Md.) as described elsewhere (Masyuk et al., Am J Pathol 2014, 184:110-121). Data were expressed as percent change at day 3 compared to day 1.

[3] = system: ADPKD cholangiocytes; experiment: Three-dimensional culture of cystic cholangiocytes, cyst growth; format: cell-based, human; details: ADPKD cholangiocytes with TGR5 depleted by shRNA
Source text: Control and cystic rat cholangiocytes (derived from wild type and PCK rats, respectively), and control and cystic human cholangiocytes (derived from healthy humans and ADPKD patients, respectively) were used. Cells were isolated and maintained as described elsewhere (Masyuk et al., Hepatol 2013, 58:409-421). […] C1 and C2 were synthesized in the Sanford-Burnham Medical Research Institute at >95% purity by HPLC following a procedure outlined elsewhere (Piotrowski et al., ACS Med Chem Lett 2013, 4:63-68; and Evans et al., J Med Chem 2009, 52:7962-7965). PCK and ADPKD cholangiocytes were stably transfected with TGR5 shRNAs or control shRNAs (Santa Cruz Biotechnology, Santa Cruz, Calif.). Rodents were maintained on a standard diet and water ad lib. […]
as §1, with “Images were taken at days 1 (i.e., 24 hours after seeding) and 3.” left out

[4] = system: PCK rats; experiment: Hepato-renal cystogenesis in PCK rats treated with OA for 6 weeks; format: in vivo; details: 25 mg/kg bw intraperitoneally daily; for hepato-renal cystogenesis: 25 mg/kg
Source text: (§2) Control PCK rats (n=8) received equal doses of DMSO. Drug concentrations were adjusted to the animal weight weekly. After 6 weeks of treatment, rats were sacrificed and body and organ weights assessed. […] Hepatic and renal cystic and fibrotic areas were expressed as a percentage of total hepatic or renal parenchyma, respectively.

[5] = system: Gαi and Gαs proteins; experiment: Western blot of Gαi and Gαs proteins in control and cystic cholangiocytes with or without OA; format: cell-based
Method: Western blotting. Briefly, proteins were separated by 4-15% SDSPAGE, transferred to nitrocellulose membranes (Bio-Rad, Hercules, Calif.), and incubated overnight at 4° C. with antibodies against TGR5 (Santa Cruz Biotechnology), Gas (Abcam, Cambridge, Mass.), and Gαi (Cell Signaling Technology, Danvers, Mass.). Actin antibody was used to assure equal protein loading. Membranes were washed and incubated for 1 hour at room temperature with the corresponding horseradish peroxidase-conjugated (Invitrogen) or IRDYE® 680 or 800 (Odyssey) secondary antibodies. Bands were visualized with the ECL Plus Western Blotting Detection kit (BD Biosciences, San Jose, Calif.) or Odyssey Li-Cor Scanner (Li-Cor, Lincoln, Nebr.).

[6] = system: Gαi and Gαs proteins, TGR5; details: PCK rats in vivo, immunofluorescence
Source text: as §2

[7] = ciliated control cholangiocytes (rat, human)
[8] = non-ciliated control and cystic cholangiocytes (rat, human)

CCNc1nc2c(c(C(N)=O)n1)CN(C(=O)CCc1ccc(OC(F)(F)F)cc1)CC2 [C1, 2-(ethylamino)-6-(3-(4-(trifluoromethoxy)phenyl)propanoyl)-5,6,7,8-tetrahydropyrido[4,3-d]pyrimidine-4-carbox-amide]
cAMP levels [1, 7]: decreased cAMP levels
cAMP production [1]: increasing cAMP production
cAMP levels [1, 8]: elevated cAMP

Cc1onc(-c2ccccc2Cl)c1C(=O)N(C)c1ccc(Cl)cc1 [C2, 3-(2-chlorophenyl)-N-(4-chlorophenyl)-N,5-dimethylisoxazole-4-carboxamide]
cAMP levels [1, 7]: decreased cAMP levels
cAMP production [1]: increasing cAMP production
cAMP levels [1, 8]: elevated cAMP

CC1(C)CC[C@]2(C(=O)O)CC[C@]3(C)C(=CC[C@@H]4[C@@]5(C)CC[C@H](O)C(C)(C)[C@@H]5CC[C@]43C)[C@@H]2C1 [OA, oleanolic acid]
cAMP levels [1, 7]: decreased cAMP levels
cAMP production [1]: increasing cAMP production
cAMP levels [1, 8]: elevated cAMP
growth of cystic structures (cyst expansion) in 3-D culture [2]: accelerated cyst expansion
growth of cystic structures in 3-D culture after TGR5 depletion [3]: abolished the effects
mortality or toxicity (e.g., hair or weight loss) [4]: no mortality or toxicity
tolerability [4]: well tolerated
increase of hepatic cystic areas ([4]; compared to control PCK rats): 31%
increase of hepatic fibrotic areas ([4]; compared to control PCK rats): 20%
increase of kidney weights ([4]; compared to control PCK rats): 11%
increase of liver weights ([4]; compared to control PCK rats): 12%
increase of renal cystic areas ([4]; compared to control PCK rats): 19%
increase of renal fibrotic areas ([4]; compared to control PCK rats): 30%
hepato-renal cystogenesis ([4]; listed as Oleanolic Acid): Increases
hepato-renal cystogenesis ([4]; listed as oleanolic acid): increases
expression of Gαi and Gαs proteins [5]: no effects; also recorded: did not affect
expression of Gα proteins [6]: does not affect
